# According to patent US20040235939A1, “Synthesis of peloruside a and analogs thereof for use as antitumor agents” (priority 2003, published 2004):
# How the values were obtained:
# LoVo = experiment: SRB cytotoxicity assay, LoVo; assay type: cell-based; conditions: Homo sapiens
# Procedure: (§1) Cells were treated on Days 1, 3, 5, and 7 with 5 μL of media, vehicle, or drug. Peloruside A was resuspended in 0.1% DMSO and added to wells to a final concentration of 0.01, 0.1, 1, 10 or 100 nM. Taxol® (Sigma-Aldrich) was resuspended in 0.1% ethanol and added to cells to a final concentration of 0.1, 1, 10, 100, or 1000 nM.
# (§2) The amount of surviving cells was measured using the sulforhodamine B (SRB) assay as previously described (Skehan et al., New colorimetric cytotoxicity assay for anticancer-drug screening. J. Natl. Cancer Inst., 1990. 82(13): p. 1107-12). Cells were fixed on Days 5, 7, and 9 (representing 4, 6, and 8 days of exposure to drug or control, respectively) with 50% (w/v) trichloroacetic acid for 1 hour at 4° C., rinsed thoroughly with water, and dried overnight. The dried cells were stained with 4% sulforhodamine B in 1% acetic acid, rinsed thoroughly and dried overnight. The bound dye was resuspended in 10 mM Tris and the absorbance was read at 492 nm. Percent growth inhibition (GI) was calculated as follows: %GI=(1−(absorbance sample/absorbance vehicle))×100. The absorbance value for each drug concentration and control represents the average of 6 replicates. The %GI was plotted against the log[drug] to generate the growth curves. The concentration of drug required to inhibit growth by 50% (GI50) was calculated for each time point.
# HCT-15 = experiment: SRB cytotoxicity assay, HCT-15; assay type: cell-based; conditions: Homo sapiens
# Procedure: as §1, §2
# HCT-116 = experiment: SRB cytotoxicity assay, HCT-116; assay type: cell-based; conditions: Homo sapiens
# Procedure: as §1, §2
# Capan-1 = experiment: SRB cytotoxicity assay, Capan-1; assay type: cell-based; conditions: Homo sapiens
# Procedure: as §1, §2
# Mia PaCa-2 = experiment: SRB cytotoxicity assay, Mia PaCa-2; assay type: cell-based; conditions: Homo sapiens
# Procedure: as §1, §2
# SK-MEL-5 = experiment: SRB cytotoxicity assay, SK-MEL-5; assay type: cell-based; conditions: Homo sapiens
# Procedure: as §1, §2
# SK-OV-3 = experiment: SRB cytotoxicity assay, SK-OV-3; assay type: cell-based; conditions: Homo sapiens
# Procedure: as §1, §2
# CAKI-1 = experiment: SRB cytotoxicity assay, CAKI-1; assay type: cell-based; conditions: Homo sapiens
# Procedure: as §1, §2
# A498 = experiment: SRB cytotoxicity assay, A498; assay type: cell-based; conditions: Homo sapiens
# Procedure: as §1, §2
# PC-3 = experiment: SRB cytotoxicity assay, PC-3; assay type: cell-based; conditions: Homo sapiens
# Procedure: as §1, §2
# DU-145 = experiment: SRB cytotoxicity assay, DU-145; assay type: cell-based; conditions: Homo sapiens
# Procedure: as §1, §2
# BT-549 = experiment: SRB cytotoxicity assay, BT-549; assay type: cell-based; conditions: Homo sapiens
# Procedure: as §1, §2
# MDA-MB-231 = experiment: SRB cytotoxicity assay, MDA-MB-231; assay type: cell-based; conditions: Homo sapiens
# Procedure: as §1, §2
# NCI-H23 = experiment: SRB cytotoxicity assay, NCI-H23; assay type: cell-based; conditions: Homo sapiens
# Procedure: as §1, §2
# NCI-H1395 = experiment: SRB cytotoxicity assay, NCI-H1395; assay type: cell-based, human; conditions: Homo sapiens
# Procedure: as §1, §2
# NCI-H2887 = experiment: SRB cytotoxicity assay, NCI-H2887; assay type: cell-based, human
# Procedure: as §1, §2
# Hep-G2 = experiment: SRB cytotoxicity assay, Hep-G2; assay type: cell-based; conditions: Homo sapiens
# Procedure: as §1, §2
# SK-HEP-1 = experiment: SRB cytotoxicity assay, SK-HEP-1; assay type: cell-based; conditions: Homo sapiens
# Procedure: as §1, §2
# [1] = system: BSC-1 (Monkey Kidney epithelial) cells; experiment: Immunofluorescent staining of tubulin in BSC-1 cells; assay type: cell-based; conditions: 200 nM of Taxol® or 50 nM of Peloruside A
# ptx10 cells = experiment: Cell Titer-Glo cell viability, Taxol-resistant ptx10 cells; conditions: Homo sapiens, PTX10, 48 h, read-out: cell viability
# Procedure: (§3) These cell lines have specific amino acid mutations in tubulin that prevent Taxol®-binding. […] Synthetic (+)-Peloruside A was used for the present example.
# (§4) 1A9, ptx10 and ptx22 cells were plated in 96-well plates to approximately 50% confluency. On the next day, Taxol® or Peloruside A was added to each well and incubated for 48 hours. A final concentration of 1, 2, 3, 4, 5, 8, 10, 20, 30, 50, 100, 300, 500, or 1000 nM of Taxol® was used. A final concentration of 10, 20, 30, 40, 50 or 70 nM of Peloruside A was used. Cell viability was measured using the Cell Titer-Glo Luminescent Cell Viability Assay (Promega). FIGS. 80-82 show bar graphs of cell viability at various concentrations of Peloruside A and Taxol®.
# ptx22 cells = experiment: Cell Titer-Glo cell viability, Taxol-resistant ptx22 cells; conditions: Homo sapiens, 48 h, read-out: cell viability
# Procedure: as §3, §4
smiles,measurement,setting,value
"CC[C@H](/C=C(/C)C1C[C@@H](OC)CC(O)C(C)(C)C2(O)OC(C[C@@H](OC)C2O)C[C@@H](OC)[C@H](O)C(=O)O1)CO (single isomer, unassigned; (+)) [Peloruside A, (+)-Peloruside A]",GI50,LoVo; 96 h,11.8 nM
same,GI50,LoVo; 144 h,7.34 nM
same,GI50,LoVo; 192 h,6.14 nM
same,GI50,"HCT-15; HCT-15, 96 h",14.3 nM
same,GI50,"HCT-15; HCT-15, 144 h",9.23 nM
same,GI50,"HCT-15; HCT-15, 192 h",11.7 nM
same,GI50,"HCT-116; HCT-116, 96 h",3.64 nM
same,GI50,"HCT-116; HCT-116, 144 h",5.81 nM
same,GI50,"HCT-116; HCT-116, 192 h",1.79 nM
same,GI50,"Capan-1; CAPAN-1, 96 h",29.8 nM
same,GI50,"Capan-1; CAPAN-1, 144 h",6.8 nM
same,GI50,"Capan-1; CAPAN-1, 192 h",5.21 nM
same,GI50,"Mia PaCa-2; MIA PaCa-2, 96 h",9.65 nM
same,GI50,"Mia PaCa-2; MIA PaCa-2, 144 h",1.76 nM
same,GI50,"Mia PaCa-2; MIA PaCa-2, 192 h",2.44 nM
same,GI50,"SK-MEL-5; SK-MEL-5, 96 h",9.42 nM
same,GI50,"SK-MEL-5; SK-MEL-5, 144 h",1.76 nM
same,GI50,"SK-MEL-5; SK-MEL-5, 192 h",2.44 nM
same,GI50,"SK-OV-3; SK-OV-3, 96 h",8.81 nM
same,GI50,"SK-OV-3; SK-OV-3, 144 h",8.51 nM
same,GI50,"SK-OV-3; SK-OV-3, 192 h",5.77 nM
same,GI50,"CAKI-1; CAKI-1, 96 h",12.5 nM
same,GI50,"CAKI-1; CAKI-1, 144 h",3.97 nM
same,GI50,"CAKI-1; CAKI-1, 192 h",3 nM
same,GI50,"A498; A498, 96 h",7.3 nM
same,GI50,"A498; A498, 144 h",1.9 nM
same,GI50,"A498; A498, 192 h",2.75 nM
same,GI50,"PC-3; PC-3, 96 h",11.6 nM
same,GI50,"PC-3; PC-3, 144 h",6.5 nM
same,GI50,"PC-3; PC-3, 192 h",2.46 nM
same,GI50,"DU-145; DU-145, 96 h",9.2 nM
same,GI50,"DU-145; DU-145, 144 h",3.25 nM
same,GI50,"DU-145; DU-145, 192 h",2.94 nM
same,GI50,"BT-549; BT-549, 96 h",38.8 nM
same,GI50,"BT-549; BT-549, 144 h",4.28 nM
same,GI50,"BT-549; BT-549, 192 h",5.73 nM
same,GI50,"MDA-MB-231; MDA-MB-231, 96 h",4.02 nM
same,GI50,"MDA-MB-231; MDA-MB-231, 144 h",3.4 nM
same,GI50,"MDA-MB-231; MDA-MB-231, 192 h",1.53 nM
same,GI50,"NCI-H23; NCI-H23, 144 h",7.11 nM
same,GI50,"NCI-H23; NCI-H23, 192 h",4.78 nM
same,GI50,"NCI-H1395; NCI-H1395, 96 h",1010 nM
same,GI50,"NCI-H1395; NCI-H1395, 144 h",84.1 nM
same,GI50,"NCI-H1395; NCI-H1395, 192 h",15.2 nM
same,GI50,"NCI-H2887; Homo sapiens, NCI-H2887, 144 h",674 nM
same,GI50,"NCI-H2887; Homo sapiens, NCI-H2887, 192 h",9.15 nM
same,GI50,"NCI-H2887; NCl-H2887, Lung, 4 Days",4 Days: Resistant
same,GI50,"Hep-G2; HepG2, 96 h",18 nM
same,GI50,"Hep-G2; HepG2, 144 h",1.58 nM
same,GI50,"Hep-G2; HepG2, 192 h",0.98 nM
same,GI50,"SK-HEP-1; SK-HEP1, 96 h",39.3 nM
same,GI50,"SK-HEP-1; SK-HEP1, 144 h",11.2 nM
same,GI50,"SK-HEP-1; SK-HEP1, 192 h",1.45 nM
same,formation of a bipolar spindle,[1],inhibits the formation of a bipolar spindle
same,viability at 0.03 µM,ptx10 cells,~50%
same,viability at 0.03 µM,ptx22 cells,~50%
